Results: US8580815B2, “Derivatives of azaindoles as inhibitors of protein kinases ABL and SRC” (Oribase Pharma, priority 2009, dated 2013)
Where two headings read alike, the source gives them in different places.

Assays:
[1] = tested on: K562 cells expressing kinase Bcr-AbI; settings: known activity; BCR-Abl+ cells, patient with CML; cited from earlier work
[2] = target: AurA/Aur2 kinase (h) (Homo sapiens (Human), UniProt O14965); assay: Cerep kinase profiling, HTRF assay, Aurora-A kinase; assay type: biochemical; settings: compound incubated at 10 μM; read-out: Percentage inhibition of kinase Aurora-A
Sequence of AurA/Aur2 kinase (h) (O14965 whole entry): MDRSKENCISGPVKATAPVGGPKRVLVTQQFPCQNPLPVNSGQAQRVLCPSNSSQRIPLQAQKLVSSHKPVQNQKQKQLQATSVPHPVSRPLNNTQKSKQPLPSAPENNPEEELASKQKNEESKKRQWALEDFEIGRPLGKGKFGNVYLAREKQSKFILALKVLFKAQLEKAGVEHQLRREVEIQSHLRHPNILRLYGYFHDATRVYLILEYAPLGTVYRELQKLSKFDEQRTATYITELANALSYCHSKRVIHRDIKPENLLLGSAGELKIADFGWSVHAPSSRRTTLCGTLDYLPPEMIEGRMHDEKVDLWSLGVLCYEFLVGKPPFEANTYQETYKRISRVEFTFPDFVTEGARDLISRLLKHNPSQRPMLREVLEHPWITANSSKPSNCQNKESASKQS
Protocol: (§1) The inhibitory activity of the compounds of the chemical series on different protein kinases was evaluated by Cerep (Cerep Kinase Profiling Service; www.cerep.com). The kinases used in the tests in vitro are human recombinant proteins expressed in human cells, insect cells or in bacteria. [table] […] The activity of the kinase was then detected by an HTRF assay. The HTRF assay (CisBio International) is based on fluorescence transfer, using Europium (Eu3+) cryptate and XL665 respectively as donor and acceptor. When the biotinylated or tagged substrate is phosphorylated by the kinase, it reacts with a cryptate-labelled phosphospecific antibody. Addition of Streptavidin-XL665, SA-XL665, (or anti-tag antibody XL665) leads to juxtaposition of the cryptate and of the fluorophore XL665, which is reflected in fluorescence resonance energy transfer (FRET). The intensity of FRET depends on the quantity of cryptate-labelled antibody bound to the substrate, which is proportional to the quantity of phosphorylated substrate (Mathis, G. Probing molecular interactions with homogeneous techniques based on rare earth cryptates and fluorescence energy transfer. Clin Chem 41, 1391-7 (1995)).

[3] = target: c-kit kinase (h) (Homo sapiens (Human), UniProt P10721); assay: Cerep kinase profiling, HTRF assay, c-kit kinase; assay type: biochemical; settings: compound incubated at 10 μM; read-out: Percentage inhibition of kinase c-kit
Sequence of c-kit kinase (h) (P10721 26-976): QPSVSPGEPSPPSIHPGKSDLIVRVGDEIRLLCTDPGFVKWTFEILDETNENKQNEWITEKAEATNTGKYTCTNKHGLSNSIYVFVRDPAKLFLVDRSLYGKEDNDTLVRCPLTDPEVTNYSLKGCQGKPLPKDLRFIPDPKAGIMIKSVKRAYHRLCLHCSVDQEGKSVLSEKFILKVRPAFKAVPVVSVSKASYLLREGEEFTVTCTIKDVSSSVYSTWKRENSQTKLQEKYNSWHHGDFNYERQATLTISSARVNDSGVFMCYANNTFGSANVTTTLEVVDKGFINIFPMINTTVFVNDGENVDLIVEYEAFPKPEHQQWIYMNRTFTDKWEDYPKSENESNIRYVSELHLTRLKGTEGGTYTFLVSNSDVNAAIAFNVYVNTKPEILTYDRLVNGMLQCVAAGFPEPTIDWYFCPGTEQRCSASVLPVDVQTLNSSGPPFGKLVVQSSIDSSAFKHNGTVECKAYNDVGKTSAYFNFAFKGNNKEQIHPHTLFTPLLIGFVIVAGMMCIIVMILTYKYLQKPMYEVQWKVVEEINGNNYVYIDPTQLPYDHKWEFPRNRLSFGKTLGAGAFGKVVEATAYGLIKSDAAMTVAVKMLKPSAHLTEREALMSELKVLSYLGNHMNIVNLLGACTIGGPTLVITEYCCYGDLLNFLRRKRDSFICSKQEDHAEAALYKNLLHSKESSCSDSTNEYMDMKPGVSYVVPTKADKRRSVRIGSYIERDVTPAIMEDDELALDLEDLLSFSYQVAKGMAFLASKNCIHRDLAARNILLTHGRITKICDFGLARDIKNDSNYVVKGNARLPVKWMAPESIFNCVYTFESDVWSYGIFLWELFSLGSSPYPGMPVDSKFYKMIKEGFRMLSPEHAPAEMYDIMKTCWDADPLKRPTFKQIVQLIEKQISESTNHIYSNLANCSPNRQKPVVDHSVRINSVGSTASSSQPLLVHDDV
Protocol: as §1

[4] = target: Src kinase (h) (Homo sapiens (Human), UniProt P12931); assay: Cerep kinase profiling, HTRF assay, Src kinase; assay type: biochemical
Sequence of Src kinase (h) (P12931 whole entry, looked up): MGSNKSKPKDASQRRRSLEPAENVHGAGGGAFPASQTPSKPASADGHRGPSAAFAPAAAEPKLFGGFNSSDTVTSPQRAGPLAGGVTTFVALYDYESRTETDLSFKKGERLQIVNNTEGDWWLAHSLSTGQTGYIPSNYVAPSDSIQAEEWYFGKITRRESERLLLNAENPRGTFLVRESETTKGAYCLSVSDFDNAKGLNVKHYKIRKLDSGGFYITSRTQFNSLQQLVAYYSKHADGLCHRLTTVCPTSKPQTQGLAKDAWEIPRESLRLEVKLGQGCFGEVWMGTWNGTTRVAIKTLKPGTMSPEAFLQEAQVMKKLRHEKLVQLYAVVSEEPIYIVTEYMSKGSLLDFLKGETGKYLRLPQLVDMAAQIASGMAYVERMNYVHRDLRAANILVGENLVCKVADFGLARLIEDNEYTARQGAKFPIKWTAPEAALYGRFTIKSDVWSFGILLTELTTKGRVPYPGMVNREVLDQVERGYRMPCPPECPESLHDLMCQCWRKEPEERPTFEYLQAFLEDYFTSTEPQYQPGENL
Protocol: as §1, with “bacteria.” for “bacteria. [table]”, “transfer.” for “transfer. Clin Chem 41, 1391-7 (1995)).”

[5] = target: Abl kinase (h) (Homo sapiens (Human), UniProt P00519); assay: Cerep kinase profiling, HTRF assay, Abl kinase; assay type: biochemical
Protocol: as §1, with “bacteria.” for “bacteria. [table]”, “transfer.” for “transfer. Clin Chem 41, 1391-7 (1995)).”

[6] = tested on: K562 cells expressing kinase Bcr-AbI; assay: Inhibition of cellular proliferation (MTT), K562 cells; assay type: cell-based, human; settings: for IC50: Homo sapiens
Protocol: Cellular tests were carried out at the Montpellier Cancer Research Centre. The inhibition of proliferation by our compounds was analysed on 2 cell lines (U937 and K562) by calculating the IC50, testing 6 concentrations in triplicate for each of the compounds and for each line.
Cells in exponential phase were seeded in 96-well plates at a concentration of 10^4 cells/100 μL/well. The final concentrations of compound in the well in contact with the cells were 0.1; 0.3; 0.9; 3.3; 10; 30; 90 μM. […]

[7] = tested on: U937 cells (BCR-Abl−); assay: cells; settings: Homo sapiens, U-937, 72 h
[8] = target: PDGFRα kinase (h) (Homo sapiens (Human), UniProt P16234); assay: Cerep kinase profiling, HTRF assay, PDGFRα kinase; assay type: biochemical; settings: compound incubated at 10 μM; read-out: Percentage inhibition of kinase PDGFR-α
Sequence of PDGFRα kinase (h) (P16234 24-1089): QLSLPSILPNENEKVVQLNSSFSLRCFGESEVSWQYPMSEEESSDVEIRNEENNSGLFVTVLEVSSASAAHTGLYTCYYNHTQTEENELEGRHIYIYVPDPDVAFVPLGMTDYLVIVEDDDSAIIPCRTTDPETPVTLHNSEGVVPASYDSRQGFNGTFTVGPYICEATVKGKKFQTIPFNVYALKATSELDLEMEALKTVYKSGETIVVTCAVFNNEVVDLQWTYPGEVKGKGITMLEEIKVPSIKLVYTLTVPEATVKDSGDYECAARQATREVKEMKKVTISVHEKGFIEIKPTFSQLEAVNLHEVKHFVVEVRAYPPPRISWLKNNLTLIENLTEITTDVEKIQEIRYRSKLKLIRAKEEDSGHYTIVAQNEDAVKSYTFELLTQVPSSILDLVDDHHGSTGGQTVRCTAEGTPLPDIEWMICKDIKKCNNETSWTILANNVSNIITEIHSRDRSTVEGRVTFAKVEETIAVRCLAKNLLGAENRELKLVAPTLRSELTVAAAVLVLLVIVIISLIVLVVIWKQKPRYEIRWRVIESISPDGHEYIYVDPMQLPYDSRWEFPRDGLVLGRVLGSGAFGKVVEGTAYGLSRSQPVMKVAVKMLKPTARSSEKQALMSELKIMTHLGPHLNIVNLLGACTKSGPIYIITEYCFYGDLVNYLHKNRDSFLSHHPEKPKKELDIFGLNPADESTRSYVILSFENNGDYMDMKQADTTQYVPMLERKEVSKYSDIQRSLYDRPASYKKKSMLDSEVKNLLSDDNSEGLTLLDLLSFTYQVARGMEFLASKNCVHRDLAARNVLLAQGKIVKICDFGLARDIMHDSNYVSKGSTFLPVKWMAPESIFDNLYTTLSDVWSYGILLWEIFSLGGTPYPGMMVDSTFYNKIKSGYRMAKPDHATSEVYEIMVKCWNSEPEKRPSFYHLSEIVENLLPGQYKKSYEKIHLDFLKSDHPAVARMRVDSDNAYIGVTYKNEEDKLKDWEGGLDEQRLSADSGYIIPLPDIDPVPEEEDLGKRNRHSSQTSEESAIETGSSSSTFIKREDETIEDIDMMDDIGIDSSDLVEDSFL
Protocol: as §1

[9] = tested on: U937 cells (BCR-Abl−)
[10] = target: Abl Y253F (Homo sapiens (Human), UniProt P00519, Y253F); assay: Reaction Biology Corp. kinase assay, mutated Abl Y253F; assay type: biochemical; settings: Table 11; ATP at 10 μM
Protocol: (§2) 4 compounds were tested for their capacity to inhibit various mutated kinases AbI (American company, Reaction Biology Corp.).

[11] = target: Abl WT (Homo sapiens (Human), UniProt P00519); assay: Reaction Biology Corp. kinase assay, Abl WT; assay type: biochemical; settings: Table 11; ATP at 10 μM; read-out: IC50 in nM Abl WT
Protocol: as §2

[12] = target: Abl T315I (Homo sapiens (Human), UniProt P00519, T315I); assay: Reaction Biology Corp. kinase assay, mutated Abl T315I; assay type: biochemical; settings: Table 11; ATP at 10 μM; read-out: IC50 in nM Abl T315I
Protocol: as §2

[13] = 10 μM, compounds tested by Cerep, read-out: % inhibition of kinase activity, Src (category)
[14] = compound incubated at 10 μM, read-out: Percentage inhibition of kinase c-Src
[15] = 10 μM, compounds tested by Cerep, read-out: % inhibition of kinase activity, Abl WT (category)
[16] = Table 6, compound incubated at 10 μM, read-out: Percentage inhibition of kinase Abl
[17] = Table 8, compound incubated at 10 μM, read-out: Percentage inhibition of kinase Abl
[18] = K562, 72 h, read-out: IC50 at 72 h on K562 (category), 72 h incubation
[19] = Table 9, Cerep, 5 concentrations 10^−10 M to 10^−4 M, read-out: IC50 in M Abl
[20] = compounds tested by Cerep, read-out: IC50 on kinase Abl WT (category)

SMILES	inhibition at 10 µM [4, 13]	inhibition at 10 µM [4, 14]	inhibition at 10 µM [5, 15]	inhibition at 10 µM [5, 16]	inhibition at 10 µM [5, 17]	further results
Cc1ccc(NC(=O)c2ccc(CN3CCN(C)CC3)cc2)cc1Nc1nccc(-c2cccnc2)n1 [Imatinib]	–	–	–	–	–	Action of Imatinib on K562 [1]: Sensitive
CN(C)CCCNC(=O)c1cc2cc(NC(=O)c3ccccc3Br)cnc2[nH]1 [ND0009, 5-(2-bromobenzamido)-N-(3-(dimethylamino)propyl)-1H-pyrrolo[2,3-b]pyridine-2-carboxamide]	> 50%	90%	> 50%	100%	100%	inhibition at 10 µM [2]: 5%; inhibition at 10 µM [3]: 44%; IC50 ([4]; Table 9, Cerep, read-out: IC50 in M c-Src): 2200 nM; IC50 ([4]; compound tested by Cerep, read-out: IC50 on kinase Src (category)): 100 to 10000 nM; activity on the Bcr-AbI+ cells (K562), in words [6]: active; IC50 ([6]; K562, 72 h, Table 12, 72 h of treatment, MTT, read-out: IC50 (μM) K562): 6 µM; IC50 [6, 18]: > 10 µM; IC50 ([6]; K562, incubation time not stated (24 h and/or 72 h), read-out: IC50 for the K562 Bcr-AbI kinase (category)): > 10 µM; IC50 ([7]; read-out: IC50 (μM) U937, Table 12, 72 h of treatment, MTT): > 100 µM; IC50 ([7]; read-out: IC50 at 72 h on U937 (category), 72 h incubation): > 10 µM; inhibition at 10 µM [8]: 11%; activity on the Bcr-AbI− cells (U937), in words [9]: not on the Bcr-AbI− cells
COC(=O)c1cc2cc(NC(=O)c3ccccc3Br)cnc2[nH]1 [ND0020, Methyl 5-(2-bromobenzamido)-1H-pyrrolo[2,3-b]pyridine-2-carboxylate]	> 50%	50%	> 50%	85%	85%	inhibition at 10 µM [2]: 5%; inhibition at 10 µM [3]: 10%; IC50 [5, 19]: 460 nM; IC50 [5, 20]: 100 to 10000 nM; IC50 ([6]; K562, 24 h, 24 h incubation, read-out: IC50 at 24 h on K562 (category)): 1 to 10 µM; IC50 [6, 18]: 1 to 10 µM; IC50 [10]: < 10 nM; IC50 [11]: 44.6 nM; inhibition at 10 µM [8]: 0%; IC50 [12]: > 100000 nM
COCc1cc2cc(NC(=O)c3ccccc3Br)cnc2[nH]1 [ND0021, 2-bromo-N-(2-(methoxymethyl)-1H-pyrrolo[2,3-b]pyridin-5-yl)benzamide]	> 50%	59%	> 50%	94%	94%	–
O=C(Nc1cnc2[nH]c(Cc3ccc[nH]3)cc2c1)c1ccccc1Br [ND0037]	> 50%	72%	> 50%	97%	97%	–
O=C(Nc1cnc2[nH]c(CNc3ccc(O)cc3)cc2c1)c1ccccc1Br [ND0038]	> 50%	71%	> 50%	94%	94%	IC50 [5, 19]: 2600 nM; IC50 [5, 20]: 100 to 10000 nM
COC(=O)c1cc2cc(NC(=O)c3c(F)cccc3OC)cnc2[nH]1 [ND0047, Methyl 5-(2-fluoro-6-methoxybenzamido)-1H-pyrrolo[2,3-b]pyridine-2-carboxylate]	> 50%	74%	> 50%	94%	94%	–
